{"source": "patent US8796249B2", "about": "“TGR5 modulators and methods of use thereof” (Intercept Pharmaceuticals, Inc., priority 2008, dated 2014)", "key": {"[1]": {"assay": "Critical micellar concentration by surface tension (maximum bubble-pressure method)", "type": "physicochemical", "procedure": "The critical micellar concentration (CMC) was determined by surface tension (ST) measurements using a maximum bubble-pressure method which give surface tension values slightly affected by potential impurities like static methods are. The tensiometer was a […] Research Corp., Milwaukee, Wis.) equipped with two glass probes of 0.5 and 4.0 mm diameters connected to a source of nitrogen. The bubble frequency was 1 bubble/second in distilled water at 26° C. (P=2.7 atm) and the calibration was made with double-distilled water and methanol. The surface tension of BA sodium salts solutions in NaCl 0.15 M was measured at various concentrations inside the 0.13-50 mM range. The surface tension values were plotted against the logarithm of the bile salt concentration; the regression lines corresponding to the two parts of the curve (monomeric and micellar phases) were calculated using the method of least squares, and the intersection of the lines was taken as the CMC value. From the ST vs concentration curves the value of the surface tension at the CMC (equilibrium between monomers and multimers species) was also calculated giving information about the detergency power which is related to the size of the micelles with associate surface tension lowering capacity. The CMC was evaluated by surface tension measurements in non equilibrium conditions i.e. in conditions that impurities slightly affect the surface tension results (FIG. 1)."}, "C57BL6J mice": {"test_system": "C57BL6J mice", "assay": "Diet-induced obesity mouse model", "type": "in vivo", "procedure": "The goal of the study was to assess the therapeutic potency of compound 3A in a mouse model of diet-induced obesity. Compound 3A was administered via food administration for 16 weeks to male C57BL6J mice that were previously subjected for 10 weeks to a high fat diet.\nFor this study, male C57BL6J mice (5 weeks of age) were divided in 2 groups: one group of animals received chow diet to control the onset of obesity, one group of animals received a high fat diet. Compound 3A was tested on the animals that received the high fat diet (HFD). The animals are then analyzed during a period of 13 weeks. The groups were as follows: • 1: chow diet • 2: high fat diet • 3: high fat diet+3A • During the entire study, body weight and food intake were monitored twice weekly. • The period for the onset of obesity was 10 weeks. At the end of the 10 weeks, body composition was analyzed by dual energy X-ray absorptiometry (dexascan) and serum levels of transaminases, glucose, triglycerides, cholesterol, HDL-C, LDL-C and insulin were measured. […]\nThe Dexa analyses were performed by the ultra high resolution PIXIMUS Series Densitometer (0.18×0.18 mm pixels, GE Medical Systems, Madison, Wis., USA). Bone mineral density (BMD in g/cm^2) and body composition were determined by using the PIXIMUS software (version 1.4×, GE Medical Systems). […]"}}}
{"smiles": "CC[C@H]1[C@@H](O)[C@@H]2[C@H](C[C@H](O)[C@]3(C)[C@@H]([C@H](C)CCCS(=O)(=O)[O-])CC[C@@H]23)[C@@]2(C)CC[C@@H](O)C[C@@H]12.[Na+]", "note": "[Compound 3A, 3α,7α,12α-trihydroxy-6α-ethyl-5β-cholan-24-sulfonate Sodium Salt]", "values": [{"measurement": "surface tension lowering capacity", "setting": "[1]; NaCl […]", "value": "high surface tension lowering capacity"}, {"measurement": "CMC […] Na+", "setting": "[1]; […] NaCl water solution", "value": 2.8, "unit": "mM"}, {"measurement": "STCMC (surface tension at CMC)", "setting": "[1]; […] NaCl water solution", "value": 43.4, "unit": "Dyne/cm"}, {"measurement": "body weight gain", "setting": "C57BL6J mice; HF-fed mice, compound in food, 0-9 weeks (FIG. 8)", "value": "blunted"}, {"measurement": "fat gain (body composition)", "setting": "C57BL6J mice; HFD mice, 5 weeks after treatment (FIG. 9)", "value": "reduces fat gain"}, {"measurement": "melting point", "value": "> 280", "unit": "°C"}]}
